Measured values as given in ChEMBL document CHEMBL5291721, “A preclinical secondary pharmacology resource illuminates target-adverse drug reaction associations of marketed drugs” (Nat Commun, 2023).
Each block holds one molecule with its values, some of them ahead of it.

Legend:
[1] = target: Rod cGMP-specific 3',5'-cyclic phosphodiesterase subunit alpha (Homo sapiens, UniProt P16499); format: functional
[2] = target: T1, Substance-K receptor (Homo sapiens, UniProt P21452)
T1 sequence (P21452 whole entry): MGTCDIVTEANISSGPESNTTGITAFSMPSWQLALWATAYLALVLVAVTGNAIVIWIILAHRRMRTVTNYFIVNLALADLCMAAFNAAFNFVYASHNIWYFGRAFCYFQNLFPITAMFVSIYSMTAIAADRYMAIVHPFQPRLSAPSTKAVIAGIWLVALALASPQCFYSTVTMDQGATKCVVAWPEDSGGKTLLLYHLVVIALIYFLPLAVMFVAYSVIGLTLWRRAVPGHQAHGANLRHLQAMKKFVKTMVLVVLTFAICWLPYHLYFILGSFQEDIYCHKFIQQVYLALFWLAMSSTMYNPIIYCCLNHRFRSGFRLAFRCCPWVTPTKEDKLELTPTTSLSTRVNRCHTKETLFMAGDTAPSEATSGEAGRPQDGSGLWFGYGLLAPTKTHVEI

[3] = target: T2, Muscarinic acetylcholine receptor M4 (Homo sapiens, UniProt P08173)
T2 sequence (P08173 whole entry): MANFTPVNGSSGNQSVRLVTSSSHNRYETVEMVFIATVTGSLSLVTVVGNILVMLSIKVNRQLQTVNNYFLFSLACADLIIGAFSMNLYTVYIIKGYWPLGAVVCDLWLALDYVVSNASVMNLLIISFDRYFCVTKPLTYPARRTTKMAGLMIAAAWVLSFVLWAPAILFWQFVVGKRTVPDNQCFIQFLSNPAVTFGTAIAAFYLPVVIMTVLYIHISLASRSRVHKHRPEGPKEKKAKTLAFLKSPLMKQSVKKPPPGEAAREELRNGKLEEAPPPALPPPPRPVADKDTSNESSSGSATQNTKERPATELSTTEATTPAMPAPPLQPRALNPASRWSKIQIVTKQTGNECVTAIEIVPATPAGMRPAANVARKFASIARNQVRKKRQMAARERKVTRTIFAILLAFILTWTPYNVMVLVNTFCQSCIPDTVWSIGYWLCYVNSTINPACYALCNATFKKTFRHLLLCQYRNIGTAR

[4] = target: D(1A) dopamine receptor (Homo sapiens, UniProt P21728)
Chain of D(1A) dopamine receptor (P21728 whole entry): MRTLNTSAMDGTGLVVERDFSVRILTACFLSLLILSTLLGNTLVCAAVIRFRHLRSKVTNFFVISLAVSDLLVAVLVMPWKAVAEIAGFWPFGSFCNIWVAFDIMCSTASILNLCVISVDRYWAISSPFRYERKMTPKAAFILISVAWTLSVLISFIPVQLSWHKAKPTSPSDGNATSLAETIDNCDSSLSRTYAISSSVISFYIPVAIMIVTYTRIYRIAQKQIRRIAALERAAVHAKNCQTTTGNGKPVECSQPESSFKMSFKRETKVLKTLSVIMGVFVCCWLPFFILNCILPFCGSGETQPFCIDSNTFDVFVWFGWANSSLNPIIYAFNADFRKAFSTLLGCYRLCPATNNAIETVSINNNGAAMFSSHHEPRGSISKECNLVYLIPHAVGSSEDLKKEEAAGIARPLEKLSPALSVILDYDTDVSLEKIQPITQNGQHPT

[5] = target: T3, Estrogen receptor (Homo sapiens, UniProt P03372); format: functional
T3 sequence (P03372 whole entry): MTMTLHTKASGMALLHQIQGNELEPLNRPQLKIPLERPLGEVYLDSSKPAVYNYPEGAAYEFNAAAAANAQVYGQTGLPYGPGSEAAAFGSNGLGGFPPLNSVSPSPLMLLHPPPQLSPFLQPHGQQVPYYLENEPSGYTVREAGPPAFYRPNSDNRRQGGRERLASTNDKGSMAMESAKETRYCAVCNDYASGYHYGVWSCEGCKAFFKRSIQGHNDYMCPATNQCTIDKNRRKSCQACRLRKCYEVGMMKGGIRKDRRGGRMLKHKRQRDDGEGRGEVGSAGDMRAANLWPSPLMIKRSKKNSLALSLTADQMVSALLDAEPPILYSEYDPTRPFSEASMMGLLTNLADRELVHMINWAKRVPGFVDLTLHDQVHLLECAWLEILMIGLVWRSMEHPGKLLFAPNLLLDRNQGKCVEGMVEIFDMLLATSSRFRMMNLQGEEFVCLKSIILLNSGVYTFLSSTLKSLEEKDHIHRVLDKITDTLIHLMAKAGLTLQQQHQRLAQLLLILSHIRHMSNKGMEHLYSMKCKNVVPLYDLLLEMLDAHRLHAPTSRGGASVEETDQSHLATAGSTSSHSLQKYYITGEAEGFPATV

[6] = target: T3, Estrogen receptor; format: functional; remark: listed apart in the source
[7] = target: T4, Glucocorticoid receptor (Homo sapiens, UniProt P04150); format: functional
T4 sequence (P04150 whole entry): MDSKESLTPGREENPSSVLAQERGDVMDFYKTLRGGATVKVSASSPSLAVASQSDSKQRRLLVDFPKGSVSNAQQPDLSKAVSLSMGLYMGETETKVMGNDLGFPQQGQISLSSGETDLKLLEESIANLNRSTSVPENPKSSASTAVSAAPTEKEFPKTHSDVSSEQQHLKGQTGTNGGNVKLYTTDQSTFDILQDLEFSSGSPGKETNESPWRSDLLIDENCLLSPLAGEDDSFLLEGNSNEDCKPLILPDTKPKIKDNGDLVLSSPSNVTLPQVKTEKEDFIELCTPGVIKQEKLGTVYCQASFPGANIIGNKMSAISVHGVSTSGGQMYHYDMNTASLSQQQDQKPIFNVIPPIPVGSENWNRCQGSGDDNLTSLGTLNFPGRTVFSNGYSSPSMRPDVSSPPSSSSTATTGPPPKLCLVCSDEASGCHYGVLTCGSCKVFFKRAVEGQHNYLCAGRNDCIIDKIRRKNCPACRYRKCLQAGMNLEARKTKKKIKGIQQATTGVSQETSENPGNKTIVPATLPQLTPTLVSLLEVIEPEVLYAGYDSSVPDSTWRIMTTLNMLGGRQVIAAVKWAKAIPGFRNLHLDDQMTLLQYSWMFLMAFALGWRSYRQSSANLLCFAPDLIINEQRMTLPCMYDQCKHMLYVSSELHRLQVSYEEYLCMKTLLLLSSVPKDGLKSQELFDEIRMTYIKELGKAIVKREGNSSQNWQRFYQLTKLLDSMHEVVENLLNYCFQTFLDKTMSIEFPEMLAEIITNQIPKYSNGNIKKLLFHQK

[8] = target: T4, Glucocorticoid receptor; format: functional; remark: listed apart in the source
[9] = target: T5, Type-2 angiotensin II receptor (Homo sapiens, UniProt P50052); format: functional
T5 sequence (P50052 whole entry): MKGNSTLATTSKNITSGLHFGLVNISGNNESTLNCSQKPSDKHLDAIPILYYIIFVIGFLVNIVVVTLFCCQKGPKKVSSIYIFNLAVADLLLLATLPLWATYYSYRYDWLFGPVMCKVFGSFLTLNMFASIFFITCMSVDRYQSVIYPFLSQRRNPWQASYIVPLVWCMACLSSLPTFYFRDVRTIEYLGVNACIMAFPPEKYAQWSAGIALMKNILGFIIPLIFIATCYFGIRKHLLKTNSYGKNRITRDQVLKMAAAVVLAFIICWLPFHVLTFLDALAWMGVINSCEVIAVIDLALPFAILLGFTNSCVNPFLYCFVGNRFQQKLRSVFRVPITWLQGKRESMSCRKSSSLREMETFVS
Further: assay procedure not described here.

Chain of Rod cGMP-specific 3',5'-cyclic phosphodiesterase subunit alpha (P16499 whole entry): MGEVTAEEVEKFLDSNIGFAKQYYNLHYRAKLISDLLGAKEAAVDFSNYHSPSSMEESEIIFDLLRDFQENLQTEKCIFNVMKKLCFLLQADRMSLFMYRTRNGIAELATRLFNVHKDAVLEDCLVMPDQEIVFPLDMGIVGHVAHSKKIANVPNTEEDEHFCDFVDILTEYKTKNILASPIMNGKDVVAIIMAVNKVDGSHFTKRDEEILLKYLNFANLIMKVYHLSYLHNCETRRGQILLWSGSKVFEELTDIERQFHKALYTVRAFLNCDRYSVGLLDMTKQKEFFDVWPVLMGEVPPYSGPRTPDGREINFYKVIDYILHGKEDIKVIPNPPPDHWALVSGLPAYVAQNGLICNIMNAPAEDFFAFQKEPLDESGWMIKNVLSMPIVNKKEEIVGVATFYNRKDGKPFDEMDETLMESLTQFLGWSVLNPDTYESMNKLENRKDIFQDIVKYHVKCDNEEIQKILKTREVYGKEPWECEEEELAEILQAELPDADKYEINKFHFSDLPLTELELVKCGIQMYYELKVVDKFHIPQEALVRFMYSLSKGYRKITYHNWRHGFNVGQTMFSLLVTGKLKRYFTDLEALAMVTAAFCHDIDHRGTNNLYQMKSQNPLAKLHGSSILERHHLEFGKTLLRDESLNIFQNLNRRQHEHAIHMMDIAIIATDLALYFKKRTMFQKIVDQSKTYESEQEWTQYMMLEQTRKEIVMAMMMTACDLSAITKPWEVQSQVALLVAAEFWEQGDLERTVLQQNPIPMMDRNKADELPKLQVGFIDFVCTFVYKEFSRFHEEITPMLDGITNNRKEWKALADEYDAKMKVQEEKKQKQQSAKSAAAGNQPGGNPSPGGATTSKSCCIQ

Structure (SMILES): N#Cc1ccc([C@H]2CCc3cncn32)c(F)c1 [OSILODROSTAT]
- AC50 [1]: > 10 µM
- AC50 [2]: > 10 µM
- AC50 [3]: > 10 µM

Structure (SMILES): CC(=O)O[C@H]1CC[C@@]2(C)C(=CC[C@@H]3[C@@H]2CC[C@]2(C)C(c4cccnc4)=CC[C@@H]32)C1 [ABIRATERONE ACETATE]
- AC50 [5]: > 30 µM
- AC50 [6]: > 30 µM
- AC50 [7]: > 30 µM
- AC50 [8]: > 30 µM

Structure (SMILES): CN1CCN(CC/C=C2/c3ccccc3Sc3ccc(S(=O)(=O)N(C)C)cc32)CC1 [THIOTHIXENE]
- AC50 [4]: 0.019 µM

More lines, now with the values ahead:

- AC50 [4]: 0.013 µM
Structure (SMILES): C=CCN1CCCC1CNC(=O)c1cc(S(N)(=O)=O)cc(OC)c1OC (stereo not drawn) [VERALIPRIDE]

- AC50 [5]: > 30 µM
- AC50 [6]: > 30 µM
- AC50 [7]: > 30 µM
- AC50 [8]: > 10 µM
Structure (SMILES): C/C(O)=C(\C#N)C(=O)Nc1ccc(C(F)(F)F)cc1 [TERIFLUNOMIDE]

- AC50 [1]: > 10 µM
- AC50 [9]: > 100 µM
- AC50 [2]: > 10 µM
- AC50 [3]: > 10 µM
Structure (SMILES): CCCCc1ncc(/C=C(\Cc2cccs2)C(=O)O)n1Cc1ccc(C(=O)O)cc1 [EPROSARTAN]

- AC50 [9]: > 100 µM
Structure (SMILES): C[C@](N)(Cc1ccc(O)c(O)c1)C(=O)O [METHYLDOPA]
